Experimental data: patent US12213970B2, “Pyridinyl sulfonamide derivatives, pharmaceutical compositions and uses thereof” (Boehringer Ingelheim International GmbH, priority 2018, dated 2025)
Counter-ions that a name gives are not always drawn. Like-named read-outs stand apart in the source and are kept apart here.

Legend:
AOC2 = target: T1, AOC2 (Homo sapiens, UniProt O75106); assay: AOC2 biochemical assay (Amplex Red)
T1 construct: host or cells: HEK293 cells (transient transfection), cell homogenate
T1 sequence (O75106 1-756): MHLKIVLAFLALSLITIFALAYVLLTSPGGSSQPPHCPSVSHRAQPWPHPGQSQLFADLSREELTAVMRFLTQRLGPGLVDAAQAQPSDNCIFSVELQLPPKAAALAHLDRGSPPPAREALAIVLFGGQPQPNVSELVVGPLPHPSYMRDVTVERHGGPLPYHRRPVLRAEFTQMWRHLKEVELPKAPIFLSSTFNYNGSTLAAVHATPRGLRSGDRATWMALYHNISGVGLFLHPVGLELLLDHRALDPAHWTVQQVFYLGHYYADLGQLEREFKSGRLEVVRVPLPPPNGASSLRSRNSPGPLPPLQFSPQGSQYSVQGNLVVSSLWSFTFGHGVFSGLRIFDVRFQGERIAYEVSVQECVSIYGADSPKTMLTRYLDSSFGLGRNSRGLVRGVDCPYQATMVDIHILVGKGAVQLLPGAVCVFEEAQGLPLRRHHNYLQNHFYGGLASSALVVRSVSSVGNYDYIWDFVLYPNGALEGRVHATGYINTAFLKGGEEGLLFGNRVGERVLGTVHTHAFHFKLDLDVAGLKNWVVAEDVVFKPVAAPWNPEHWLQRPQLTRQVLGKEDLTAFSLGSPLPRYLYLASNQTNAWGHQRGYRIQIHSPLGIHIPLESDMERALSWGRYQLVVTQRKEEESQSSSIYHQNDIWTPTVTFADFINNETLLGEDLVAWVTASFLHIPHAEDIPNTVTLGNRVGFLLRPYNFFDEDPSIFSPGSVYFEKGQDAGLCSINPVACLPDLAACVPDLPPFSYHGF
Description: The Amplex® Red Assay (commercially available from Thermo Fisher Scientific) provides a sensitive method for the detection of H2O2 generated during enzymatic reactions like the amine oxidation catalyzed by AOC2. […] An aliquot of 5 μL of the compound dilution is added to a 96 well plate (flat bottom F, black, GREINER bio-one, #655900) in a DMSO concentration of 2%. […] Cells are cultured for 3 days in EMEM culture medium containing 10% FCS (#04-00-1A, Biological Industries). After washing twice with ice cold PBS, cells are lysed by mechanic homogenation and cleared supernatants are shock frozen in liquid nitrogen and stored at -80° C. For the determination of AOC2 enzymatic activity cell lysates are thawed on ice and 1:1 diluted with reaction buffer. An Aliquot of 45 μL is added to the compound dilution and incubated for 30 min at 37° C. The enzymatic reaction is started with the addition of 50 μL of Amplex® Red reaction mix (final assay concentration: 100 mM sodiumphosphate, 120 μM Amplex® Red reagent (#A22177 Molecular Probes), 1.5 U/mL Horseradish Peroxidase (#P8375 Sigma-Aldrich), 2 mM phenylethylamine (#[…] Sigma-Aldrich), 0.05% Pluronic F-127 (#P3000MP Sigma-Aldrich), pH 7.4, 37° C.). The turnover per time of the substrate is determined directly with a fluorescence reader (Ex 540 nm/Em 590 nm) like Envision 2104 Multilabel Reader (PERKIN ELMER) for 60 min. (cf. Anal Biochem (1997) 253:169-174; Anal Biochem (1997) 253:162-168)

MAO-A = target: T2, MAO-A (Homo sapiens, UniProt P21397); assay: MAO-A biochemical assay (MAO-Glo)
T2 construct: purchased Sigma-Aldrich M7316
T2 sequence (P21397 1-527): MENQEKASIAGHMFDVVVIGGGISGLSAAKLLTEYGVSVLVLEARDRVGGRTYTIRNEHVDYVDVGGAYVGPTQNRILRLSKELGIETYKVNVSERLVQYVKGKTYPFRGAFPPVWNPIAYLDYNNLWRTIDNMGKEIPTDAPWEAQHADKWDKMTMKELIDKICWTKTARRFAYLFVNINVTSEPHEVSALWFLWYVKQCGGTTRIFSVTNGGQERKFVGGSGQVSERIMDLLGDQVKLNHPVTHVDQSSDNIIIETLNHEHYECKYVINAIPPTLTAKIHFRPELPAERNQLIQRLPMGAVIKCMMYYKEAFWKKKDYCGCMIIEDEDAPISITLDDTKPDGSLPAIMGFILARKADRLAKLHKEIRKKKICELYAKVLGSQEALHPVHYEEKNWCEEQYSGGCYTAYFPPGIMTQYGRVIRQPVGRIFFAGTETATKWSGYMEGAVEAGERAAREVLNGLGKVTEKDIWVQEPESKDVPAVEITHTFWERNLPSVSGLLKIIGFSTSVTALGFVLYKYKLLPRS
From the text: The MAO-Glo™ Assay (commercially available from PROMEGA, #V1402) provides a sensitive method for the measurement of monoamine oxidase (MAO) activity (Valley, M. P. et al., 2006, Anal. Biochem. 359: 238-246) from a variety of tissues, biofluids or recombinant expressed or purified enzymes. As substrate a derivate of the beetle luciferin ((4S)-4,5-dihydro-2-(6-hydroxybenzothiazolyl)-4-thiazole-carboxylic acid) is used, which is oxidized at a primary amine moiety. After a spontaneous elimination and a catalyzed esterase reaction, the turnover of luciferin by the luciferase is recorded as a signal of MAO-A activity.
An aliquot of 3 μL of the compound dilution is added to a 384 well plate (Optiplate, PS, flat bottom F, black, PERKIN ELMER, #6007270) in a DMSO concentration of 1.025%.
A MAO-A enzyme aliquot (M7316, Sigma-Aldrich) is thawed on ice, diluted in reaction buffer to 1.25 mU/μL and added in a volume of 5 μL to the wells. After incubation for 20 minutes at 37° C., 2 μL of MAO substrate (dissolved in DMSO at 16 mM, diluted to 20 μM in assay buffer to obtain a final assay concentration of 4 μM) is added, mixed, and the mixture further incubated for 60 minutes at 37° C.
The turnover of the substrate is determined by the addition of 10 μL of the Detection Reagent mix which was generated by the addition of reconstitution buffer with esterase (PROMEGA, #V1402) to the luciferin detection reagent (PROMEGA, #V1402). After an incubation period of 20 minutes at 37° C., the luminescent signal is measured with a […], e.g. Envision 2104 Multilabel Reader (PERKIN ELMER).

[1] = comparison table, read-out: IC50 AOC2
[2] = comparison table, read-out: IC50 MAO-A

SMILES	IC50 (AOC2; read-out: AOC2 IC50) [nM]	IC50 (MAO-A; IC50, read-out: MAO-A) [nM]	IC50 (AOC2; [1]) [nM]	IC50 (MAO-A; [2]) [nM]	IC50 (AOC2; read-out: IC50 AOC2) [nM]	ratio IC50 AOC2/IC50 AOC3 (fold less active against AOC2 as compared to AOC3) (AOC2; AOC2 versus AOC3) [fold]
COC1CCN(S(=O)(=O)c2ccc(OC/C(=C\F)CN)nc2)CC1 [Example 40]	40	> 50000	–	–	–	–
CC1(O)CCN(S(=O)(=O)c2ccc(OC/C(=C\F)CN)nc2)CC1 [Example 41]	24	> 50000	–	–	–	–
NC/C(=C/F)COc1ccc(S(=O)(=O)N2CCC(CC(=O)O)CC2)cn1 [Example 44, trifluoroacetate]	1	> 50000	–	–	–	–
NC/C(=C/F)COc1ccc(S(=O)(=O)N2C[C@@H]3[C@H](C2)[C@H]3C(=O)O)cn1 [Example 45, trans-3-[6-((Z)-2-Aminomethyl-3-fluoro-allyloxy)-pyridine-3-sulfonyl]-3-aza-bicyclo[3.1.0]hexane-6-carboxylic acid trifluoroacetate]	70	> 50000	–	–	–	–
NC/C(=C/F)COc1ccc(S(=O)(=O)N2CCC(C(=O)O)CC2)cn1 [Example 46]	45	> 50000	–	–	–	–
CC1(C(=O)O)CCN(S(=O)(=O)c2ccc(OC/C(=C\F)CN)nc2)CC1 [Example 47]	5	> 50000	–	–	–	–
CC1(C(=O)NC2CCOCC2)CCN(S(=O)(=O)c2ccc(OC/C(=C\F)CN)nc2)CC1 [Example 48, 1-[6-((Z)-2-Aminomethyl-3-fluoro-allyloxy)-pyridine-3-sulfonyl]-4-methyl-piperidine-4-carboxylic acid (tetrahydropyran-4-yl)-amide trifluoroacetate]	73	> 50000	–	–	–	–
CC1(C(N)=O)CCN(S(=O)(=O)c2ccc(OC/C(=C\F)CN)nc2)CC1 [Example 49]	21	> 50000	–	–	–	–
COC1CN(S(=O)(=O)c2ccc(OC/C(=C\F)CN)cc2)C1 [Reference compound A, reference compound]	–	–	156	2350	–	52
NC/C(=C/F)COc1cnc(N2CC[C@H](O)C2)nc1 [Z isomer of example 6 of WO 2018/027892, reference compound]	–	–	–	56300	2730	–

More lines, now with the values ahead:

IC50 (AOC2; read-out: AOC2 IC50) [nM]	IC50 (MAO-A; IC50, read-out: MAO-A) [nM]	IC50 (AOC2; [1]) [nM]	IC50 (MAO-A; [2]) [nM]	IC50 (AOC2; read-out: IC50 AOC2) [nM]	ratio IC50 AOC2/IC50 AOC3 (fold less active against AOC2 as compared to AOC3) (AOC2; AOC2 versus AOC3) [fold]	SMILES
44	21400	–	–	–	–	CCNC(=O)CC1CCN(S(=O)(=O)c2ccc(OC/C(=C\F)CN)nc2)CC1 [Example 30]
40	> 50000	–	–	–	–	NC/C(=C/F)COc1ccc(S(=O)(=O)N2CC[C@@H](C(N)=O)C2)cn1 [Example 31]
39	38600	–	–	–	–	COC(=O)CC1CCN(S(=O)(=O)c2ccc(OC/C(=C\F)CN)nc2)CC1 [Example 32]
–	40500	55	40500	–	–	COC1CN(S(=O)(=O)c2ccc(OC/C(=C\F)CN)nc2)C1 [Example 33]
78	15200	–	–	–	–	COC(=O)C1CCN(S(=O)(=O)c2ccc(OC/C(=C\F)CN)nc2)CC1 [Example 34]
277	> 50000	–	–	–	–	COC(=O)[C@H]1[C@@H]2CN(S(=O)(=O)c3ccc(OC/C(=C\F)CN)nc3)C[C@@H]21 [Example 35, trans-3-[6-((Z)-2-Aminomethyl-3-fluoro-allyloxy)-pyridine-3-sulfonyl]-3-aza-bicyclo[3.1.0]hexane-6-carboxylic acid methyl ester trifluoroacetate]
3	13500	–	–	–	–	COC(=O)C1(C)CCN(S(=O)(=O)c2ccc(OC/C(=C\F)CN)nc2)CC1 [Example 36]
193	> 50000	–	–	–	–	CNC(=O)C1CCN(S(=O)(=O)c2ccc(OC/C(=C\F)CN)nc2)CC1 [Example 37, trifluoroacetate]
61	32300	–	–	–	–	NC/C(=C/F)COc1ccc(S(=O)(=O)N2CCCCC2)cn1 [Example 38]
56	> 50000	–	–	–	–	NC/C(=C/F)COc1ccc(S(=O)(=O)N2CC[C@H](C(N)=O)C2)cn1 [Example 39]
9	48200	–	–	–	–	NC/C(=C/F)COc1ccc(S(=O)(=O)N2CCC(O)(C(F)(F)F)CC2)cn1 [Example 42]
–	49100	–	49100	210	–	NC/C(=C/F)COc1ccc(S(=O)(=O)N2CC[C@H](O)C2)cn1 [Example 43, (S)-1-[6-(Z)-2-Aminomethyl-3-fluoro-allyloxy]-pyridine-3-sulfonyl]-pyrrolidin-3-ol trifluoroacetate]
16	29600	–	–	–	–	NC/C(=C/F)COc1ccc(S(=O)(=O)N2CCC(CC(N)=O)CC2)cn1 [Example 50]
